Here are results for four compounds from US8362263B2 (CJ Cheiljedang Corporation, priority 2006, dated 2013).

Where a name gives a salt, the structure may show the parent alone.

Data set [1] is described as follows: Thermal stability in liquid state (distilled water, 25° C., dark, 4 weeks). Conditions: dissolved in distilled water, 4 weeks at 25° C. in the dark. The data set is classed as physicochemical. As to the method: (§1) <HPLC Analysis Condition> • Detector: UV absorbance (at 237 nm), • Column: Octadecyl silica gel C18 (4.6 mm×150 mm, 5[…]), • mobile phase: Potassium dihydrogen phosphate monobasic (0.03 M): Methanol=4:6 (by volume) • Flow rate: 1.5 ml/min.
The observation was made under the same conditions as in the HPLC analysis for evaluating the thermal stability of samples in a solid state.

A short description of data set [2]: Hygroscopicity test (K.F. water content under various humidity). The data set is classed as physicochemical. The note with it: 25° C.; for hygroscopicity (in words): various humidity conditions.
Data set [3] in a line: Thermal stability in solid state, acceleration test at 60° C. (HPLC content). The data set is classed as physicochemical. As to the method: as §1
Data set [4] is described as follows: Photostability test (ICH photostable chamber, 25° C., 4 weeks, HPLC content). The data set is classed as physicochemical. The note with it: 4 weeks at 25° C., light source. As to the method: as §1
An observation was made of content (HPLC) change under the same conditions as in the HPLC analysis for evaluating the thermal stability of samples.

The nature of data set [5]: physchem. Conditions: 25 °C.

As a reminder, the solubility is the concentration that dissolves in the medium under given conditions.

Regarding `CCOC(=O)C1=C(COCCN)NC(C)=C(C(=O)OC)C1c1ccccc1Cl.O=C(O)CCCCC(=O)O` (racemic) [C. Ex. 2, crystalline racemic amlodipine adipic acid salt anhydrous, reference compound], the “content change in liquid state (in words)” value in data set [1] is listed as “no significant content changes”. The “water content (K.F. moisture %)” value in data set [2] (25% RH, Post 1 Week) is 0.10%; in data set [2] (60% RH, Post 1 Week), 0.09%; in data set [2] (75% RH, Post 1 Week), 0.15%; in data set [2] (95% RH, Post 1 Week), 0.17%; in data set [2] (Initial), 0.10%. The “hygroscopicity (in words)” value in data set [2] is “no hygroscopicity”. The “content change in 60° C. acceleration test (in words)” value in data set [3] is reported as “little change in content”.

With `CCOC(=O)C1=C(COCCN)NC(C)=C(C(=O)OC)[C@@H]1c1ccccc1Cl.CCOC(=O)C1=C(COCCN)NC(C)=C(C(=O)OC)[C@@H]1c1ccccc1Cl.O.O.O.O.O.O=S(=O)(O)c1ccccc1.O=S(=O)(O)c1ccccc1` [C. Ex. 1, S-(−)-amlodipine besylate 2.5 hydrate, reference compound], in data set [4], the “appearance on light exposure” value is given as “turned yellow from white”. Besides, the “content change in liquid state (in words)” value in data set [1] is “no significant content changes”. For the same compound, the “water content (K.F. moisture %)” value in data set [2] (25% RH, Post 1 Week) worked out at 7.55%; in data set [2] (60% RH, Post 1 Week), 7.6%; in data set [2] (75% RH, Post 1 Week), 7.85%; in data set [2] (95% RH, Post 1 Week) it was 7.9%; in data set [2] (Initial), 7.8%. Moreover, the “hygroscopicity (in words)” value in data set [2] is reported as “high in water content from the beginning”. For the same compound, the “content change in 60° C. acceleration test (in words)” value in data set [3] was “little change in content”.

With `CCOC(=O)C1=C(COCCN)NC(C)=C(C(=O)OC)[C@@H]1c1ccccc1Cl` [Ex. 1, crystalline S-(−)-amlodipine adipic acid salt anhydrous], the “content change in liquid state (in words)” value in data set [1] is “no significant content changes”. Moreover, the solubility is 81.7 mg/mL in data set [5] (pH 1.2, simulated gastric fluid); 57.1 mg/mL in data set [5] (pH 4, aqueous buffer); 41.3 mg/mL in data set [5] (pH 6.8, aqueous buffer); 18.6 mg/mL in data set [5] (water). Also, the “water content (K.F. moisture %)” value in data set [2] (25% RH, Post 1 Week) came to 0.15%; in data set [2] (60% RH, Post 1 Week), 0.15%; in data set [2] (75% RH, Post 1 Week), 0.14%; in data set [2] (95% RH, Post 1 Week) it was 0.16%; in data set [2] (Initial) it was 0.15%. In addition, the “hygroscopicity (in words)” value in data set [2] was “no hygroscopicity”. Moreover, the “content change in 60° C. acceleration test (in words)” value in data set [3] is reported as “little change in content”.

On to `CCOC(=O)C1=C(COCCN)NC(C)=C(C(=O)OC)[C@@H]1c1ccccc1Cl` [Ex. 2, hygroscopic crystalline S-(−)-amlodipine adipic acid salt anhydrous], for which the “water content (K.F. moisture %)” value in data set [2] (25% RH, Post 1 Week) came to 0.8%; in data set [2] (60% RH, Post 1 Week), 0.9%; in data set [2] (75% RH, Post 1 Week), 1.3%; in data set [2] (95% RH, Post 1 Week), 1.62%; in data set [2] (95% RH, Post 1 Week, listed as Example 2), 1.62%; in data set [2] (Initial), 0.7%.
